Laboratory results taken from ChEMBL document CHEMBL1126172, “Modeling of competitive phosphono amino acid NMDA receptor antagonists” (J Med Chem, 1992).

Key:
Format in all cases: protein-complex assay
Glutamate NMDA receptor [1] = assay: Compound was evaluated for its ability to displace [3H]CPP ligand from N-methyl-D-aspartate glutamate receptor
Glutamate NMDA receptor [2] = assay: Displacement of [3H]CPP or [3H]-CGS- 19755 from rat N-methyl-D-aspartate glutamate receptor
Glutamate NMDA receptor [3] = assay: Compound was evaluated for its ability to displace [3H]CPP or [3H]-CGS- 19755 ligand from N-methyl-D-aspartate glutamate receptor
Glutamate NMDA receptor [4] = assay: Compound was evaluated for its ability to displace [3H]CPP ligand from N-methyl-D-aspartate (NMDA) receptor
Glutamate NMDA receptor [5] = assay: Compound was evaluated for its ability to displace [3H]-CGS- 19755 ligand from N-methyl-D-aspartate glutamate receptor
Glutamate NMDA receptor [6] = assay: (§1) Compound was evaluated for its ability to displace [3H]CPP or [3H]-CGS- 19755 ligand from N-methyl-D-aspartate (NMDA) receptor
Glutamate NMDA receptor [7] = assay: Compound was evaluated for its ability to displace [3H]-CPP ligand from N-methyl-D-aspartate (NMDA) receptor
Glutamate NMDA receptor [8] = assay: as §1; remark: listed apart in the source

Structure (SMILES) | Ki (Glutamate NMDA receptor [2]) [nM] | further results
NC(CCCP(=O)(O)O)C(=O)O (configuration not stated) | < 1000 | Ki (Glutamate NMDA receptor [1]): 260 nM
CC(C)([C@@H]1CCN[C@H](C(=O)O)C1)P(=O)(O)O | > 1000 | –
NC(CCCCP(=O)(O)O)C(=O)O (configuration not stated) | – | Ki (Glutamate NMDA receptor [3]): > 1000 nM; Ki (Glutamate NMDA receptor [4]): 42 nM
O=C(O)[C@H]1NCCC[C@H]1CCP(=O)(O)O | > 1000 | –
C[C@@H]1CN[C@H](C(=O)O)C[C@@H]1CP(=O)(O)O | < 1000 | –
C[C@@H]1[C@H](CP(=O)(O)O)CCN[C@@H]1C(=O)O | > 1000 | –
C[C@H]1C[C@@H](CP(=O)(O)O)C[C@@H](C(=O)O)N1 | > 1000 | –
NC(CCc1ccccc1CP(=O)(O)O)C(=O)O (configuration not stated) | > 1000 | –
NC(CCCCCP(=O)(O)O)C(=O)O (configuration not stated) [AP-7] | < 1000 | Ki (Glutamate NMDA receptor [5]): 912 nM
C/C(=C\C(N)C(=O)O)CP(=O)(O)O (configuration not stated) [CGP-37849] | – | Ki (Glutamate NMDA receptor [6]): < 1000 nM; Ki (Glutamate NMDA receptor [7]): 35 nM
O=C(O)[C@@H]1C[C@H](CP(=O)(O)O)CCN1 [SELFOTEL] | – | Ki (Glutamate NMDA receptor [6]): < 1000 nM; Ki (Glutamate NMDA receptor [8]): 130 nM

Now from value to molecule, other results behind:

Ki (Glutamate NMDA receptor [2]) [nM] | Structure (SMILES) | further results
> 1000 | CC([C@@H]1CCN[C@H](C(=O)O)C1)P(=O)(O)O (some centres not stated) | –
< 1000 | O=C(O)[C@@H]1C[C@H](CCCP(=O)(O)O)CCN1 | –
< 1000 | O=C(O)[C@@H]1C[C@H](C/C=C/P(=O)(O)O)CCN1 | Ki (Glutamate NMDA receptor [5]): 72 nM
< 1000 | O=C(O)[C@@H]1C[C@H](/C=C/CP(=O)(O)O)CCN1 | Ki (Glutamate NMDA receptor [5]): 14 nM
